From patent US11999727B2 (Tango Therapeutics, Inc., priority 2020, dated 2024)

Columns and labels:
PRMT5 [1] = target: T1, PRMT5 (Homo sapiens, UniProt O14744); assay: PRMT5 biochemical IC50 assay with no cofactor; details: PRMT5, no cofactor; read-out: No Cofactor/rel IC50
T1 construct: purchased Viva (custom protein)
Description: Table 1 indicates IC50 values (μM) against PRMT5 for exemplary compounds in the presence of SAM as cofactor, with no cofactor, and with MTA as cofactor, respectively (columns 4-6). […] Ki values can be calculated from the IC50 values as described in the Examples section. As detailed in the Examples section, for the assay performed in the presence of SAM, IC50=Ki×1.5 (Ki=IC50/1.5).

PRMT5 [2] = target: T1, PRMT5; assay: PRMT5 biochemical IC50 assay with MTA as cofactor; details: PRMT5, MTA as cofactor; read-out: MTA IC50
[3] = tested on: HAP1 MTAP-intact cell line; assay: SDMA in-cell western assay, HAP1 MTAP-intact; type: cell-based; details: Homo sapiens, HAP1, SDMA in-cell western, HAP1 MTAP-intact; read-out: MTAP HAP1 intact IC50
In short: (§1)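 Compounds were tested in HAP1 cells differing only in MTAP status (endogenous expression versus null). Cellular SDMA levels were then measured by in-cell western, giving an IC50 in each background.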

[4] = tested on: HAP1 MTAP-deleted cell line; assay: SDMA in-cell western assay, HAP1 MTAP-deleted; type: cell-based; details: for IC50: Homo sapiens, HAP1, SDMA in-cell western, HAP1 MTAP-deleted, read-out: HAP1 MTAP deleted IC50; for MTAP intact/deleted ratio: IC50 ratio HAP1 MTAP-intact / HAP1 MTAP-deleted, SDMA in-cell western
In short: as §1

PRMT5 [5] = target: T1, PRMT5; assay: PRMT5 biochemical IC50 assay with SAM as cofactor; details: PRMT5, SAM as cofactor; read-out: SAM IC50
[6] = tested on: HAP1 MTAP-deleted cell line; assay: Viability assay, MTAP-deleted cell line; type: cell-based; details: Homo sapiens, HAP1, viability assay, MTAP-deleted cell line; read-out: HAP1 MTAP deleted viability
Description: Table 1 additionally indicates IC50 values in a viability assay for the MTAP-deleted cell line (column 10), indicating the effect of treatment with compound on cell survival.

T1 sequence (O14744 whole entry): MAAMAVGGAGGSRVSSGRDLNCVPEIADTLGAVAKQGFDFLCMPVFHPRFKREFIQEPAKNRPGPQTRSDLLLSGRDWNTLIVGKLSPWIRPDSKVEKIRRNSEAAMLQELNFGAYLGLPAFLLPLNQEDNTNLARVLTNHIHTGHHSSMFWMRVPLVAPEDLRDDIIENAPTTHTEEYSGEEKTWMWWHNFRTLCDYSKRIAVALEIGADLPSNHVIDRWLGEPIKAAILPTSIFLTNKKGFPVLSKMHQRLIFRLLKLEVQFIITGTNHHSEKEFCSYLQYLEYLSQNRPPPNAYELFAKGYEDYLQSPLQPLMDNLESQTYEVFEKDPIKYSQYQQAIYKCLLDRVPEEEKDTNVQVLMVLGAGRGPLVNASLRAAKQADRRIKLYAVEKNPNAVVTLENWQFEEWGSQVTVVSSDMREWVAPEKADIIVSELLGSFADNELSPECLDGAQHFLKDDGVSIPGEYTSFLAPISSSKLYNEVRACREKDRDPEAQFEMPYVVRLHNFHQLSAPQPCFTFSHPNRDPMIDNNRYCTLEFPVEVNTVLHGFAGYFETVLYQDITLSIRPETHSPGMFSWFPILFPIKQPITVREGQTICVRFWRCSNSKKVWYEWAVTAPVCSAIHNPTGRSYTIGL
T1 sequence (Q9BQA1 whole entry partner): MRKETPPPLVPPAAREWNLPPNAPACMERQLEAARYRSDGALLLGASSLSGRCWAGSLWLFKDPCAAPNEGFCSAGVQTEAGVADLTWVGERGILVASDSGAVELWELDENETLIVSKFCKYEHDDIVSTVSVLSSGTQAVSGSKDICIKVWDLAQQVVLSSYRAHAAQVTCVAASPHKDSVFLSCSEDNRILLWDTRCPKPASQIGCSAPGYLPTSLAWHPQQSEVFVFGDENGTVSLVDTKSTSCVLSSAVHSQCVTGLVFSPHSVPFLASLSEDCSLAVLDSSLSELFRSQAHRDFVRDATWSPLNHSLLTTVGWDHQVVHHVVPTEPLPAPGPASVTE

| Compound | IC50 (PRMT5 [1]) | IC50 (PRMT5 [2]) | IC50 [3] | IC50 [4] | IC50 (PRMT5 [5]) | MTAP intact/deleted ratio [4] | IC50 [6] |
| --- | --- | --- | --- | --- | --- | --- | --- |
| C[C@@H]1CC[C@@H](c2cncc(F)c2)N(C(=O)C(=O)Nc2cncc(C(N)=O)c2)C1 (racemic) [Compound 248, rac-5-{2-[(2R,5S)-2-(5-Fluoropyridin-3-yl)-5-methylpiperidin-1-yl]-2-oxoacetamido}pyridine-3-carboxamide] | > 500 nM | 50 to 500 nM | > 1000 nM | > 1000 nM | > 500 nM | B (an IC50 ratio greater than or equal to 3 fold but lower than 10 fold) | > 10000 nM |
| CNC(=O)[C@@H]1CC[C@@H](c2ccccc2)N(C(=O)C(=O)Nc2cnc(N)c(C)c2)C1 (racemic) [Compound 249, 1-(2-((6-amino-5-methylpyridin-3-yl)amino)-2-oxoacetyl)-N-methyl-6-phenylpiperidine-3-carboxamide] | > 500 nM | 50 to 500 nM | > 1000 nM | > 1000 nM | 50 to 500 nM | C (an IC50 ratio of less than 3 fold) | > 10000 nM |
| CNC(=O)[C@@H]1CC[C@H](c2ccccc2)N(C(=O)C(=O)Nc2cnc(N)c(C)c2)C1 (racemic) [Compound 253, 1-(2-((6-amino-5-methylpyridin-3-yl)amino)-2-oxoacetyl)-N-methyl-6-phenylpiperidine-3-carboxamide] | > 500 nM | 50 to 500 nM | > 1000 nM | > 1000 nM | 50 to 500 nM | C (an IC50 ratio of less than 3 fold) | > 10000 nM |
| C[C@@H]1CC[C@@H](c2ccc(F)c(C(F)(F)F)c2)N(C(=O)C(=O)Nc2cncc(C(N)=O)c2)C1 (racemic) [Compound 255, rac-5-{2-[(2R,5S)-2-[4-Fluoro-3-(trifluoromethyl)phenyl]-5-methylpiperidin-1-yl]-2-oxoacetamido}pyridine-3-carboxamide] | 50 to 500 nM | < 50 nM | > 1000 nM | 100 to 1000 nM | 50 to 500 nM | A (an IC50 ratio greater than or equal to 10 fold) | 1000 to 10000 nM |
| C[C@@H]1CC[C@@H](c2ccc(-n3cccn3)cc2)N(C(=O)C(=O)Nc2cncc(C(N)=O)c2)C1 (racemic) [Compound 256, rac-5-{2-[(2R,5S)-5-Methyl-2-[4-(1H-pyrazol-1-yl)phenyl]piperidin-1-yl]-2-oxoacetamido}pyridine-3-carboxamide] | 50 to 500 nM | < 50 nM | > 1000 nM | < 100 nM | 50 to 500 nM | A (an IC50 ratio greater than or equal to 10 fold) | 1000 to 10000 nM |
| C[C@@H]1CC[C@@H](c2cnc3ccccc3c2)N(C(=O)C(=O)Nc2cncc(C(N)=O)c2)C1 (racemic) [Compound 257, rac-5-{2-[(2R,5S)-5-Methyl-2-(quinolin-3-yl)piperidin-1-yl]-2-oxoacetamido}pyridine-3-carboxamide] | > 500 nM | 50 to 500 nM | > 1000 nM | > 1000 nM | > 500 nM | B (an IC50 ratio greater than or equal to 3 fold but lower than 10 fold) | > 10000 nM |
| C[C@@H]1CC[C@@H](c2ccc(C3(O)CCC3)cc2)N(C(=O)C(=O)Nc2cncc(C(N)=O)c2)C1 (racemic) [Compound 259, rac-5-{2-[(2R,5S)-2-[4-(1-Hydroxycyclobutyl)phenyl]-5-methylpiperidin-1-yl]-2-oxoacetamido}pyridine-3-carboxamide] | 50 to 500 nM | 50 to 500 nM | > 1000 nM | 100 to 1000 nM | 50 to 500 nM | A (an IC50 ratio greater than or equal to 10 fold) | > 10000 nM |
| C[C@@H]1CC[C@@H](c2cccc(C3CCC3)c2)N(C(=O)C(=O)Nc2cncc(C(N)=O)c2)C1 (racemic) [Compound 261, rac-5-{2-[(2R,5S)-2-(3-Cyclobutylphenyl)-5-methylpiperidin-1-yl]-2-oxoacetamido}pyridine-3-carboxamide] | 50 to 500 nM | < 50 nM | > 1000 nM | < 100 nM | 50 to 500 nM | A (an IC50 ratio greater than or equal to 10 fold) | 1000 to 10000 nM |
| C[C@@H]1CC[C@@H](c2ccc(F)c(F)c2)N(C(=O)C(=O)Nc2cncc(C(N)=O)c2)C1 (racemic) [Compound 263, rac-5-{2-[(2R,5S)-2-(3,4-Difluorophenyl)-5-methylpiperidin-1-yl]-2-oxoacetamido}pyridine-3-carboxamide] | 50 to 500 nM | < 50 nM | > 1000 nM | 100 to 1000 nM | 50 to 500 nM | A (an IC50 ratio greater than or equal to 10 fold) | 1000 to 10000 nM |

Continued, in another order:

| IC50 (PRMT5 [1]) | IC50 (PRMT5 [2]) | IC50 [3] | IC50 [4] | IC50 (PRMT5 [5]) | Compound | MTAP intact/deleted ratio [4] | IC50 [6] |
| --- | --- | --- | --- | --- | --- | --- | --- |
| 50 to 500 nM | < 50 nM | > 1000 nM | < 100 nM | 50 to 500 nM | C[C@@H]1CC[C@@H](c2ccc3ccoc3c2)N(C(=O)C(=O)Nc2cncc(C(N)=O)c2)C1 (racemic) [Compound 241, rac-5-{2-[(2R,5S)-2-(1-Benzofuran-6-yl)-5-methylpiperidin-1-yl]-2-oxoacetamido}pyridine-3-carboxamide] | A (an IC50 ratio greater than or equal to 10 fold) | 1000 to 10000 nM |
| 50 to 500 nM | < 50 nM | > 1000 nM | 100 to 1000 nM | 50 to 500 nM | C[C@@H]1CC[C@@H](c2ccc(Cl)c(Cl)c2)N(C(=O)C(=O)Nc2cncc(C(N)=O)c2)C1 (racemic) [Compound 243, rac-5-{2-[(2R,5S)-2-(3,4-Dichlorophenyl)-5-methylpiperidin-1-yl]-2-oxoacetamido}pyridine-3-carboxamide] | A (an IC50 ratio greater than or equal to 10 fold) | 1000 to 10000 nM |
| 50 to 500 nM | < 50 nM | > 1000 nM | < 100 nM | 50 to 500 nM | C[C@@H]1CC[C@@H](c2ccc(C#N)c(C3CC3)c2)N(C(=O)C(=O)Nc2cncc(C(N)=O)c2)C1 (racemic) [Compound 244, rac-5-{2-[(2R,5S)-2-(4-Cyano-3-cyclopropylphenyl)-5-methylpiperidin-1-yl]-2-oxoacetamido}pyridine-3-carboxamide] | A (an IC50 ratio greater than or equal to 10 fold) | 1000 to 10000 nM |
| 50 to 500 nM | < 50 nM | > 1000 nM | 100 to 1000 nM | 50 to 500 nM | C[C@@H]1CC[C@@H](c2ccc(C#N)cc2)N(C(=O)C(=O)Nc2cncc(C(N)=O)c2)C1 (racemic) [Compound 246, rac-5-{2-[(2R,5S)-2-(4-Cyanophenyl)-5-methylpiperidin-1-yl]-2-oxoacetamido}pyridine-3-carboxamide] | A (an IC50 ratio greater than or equal to 10 fold) | 1000 to 10000 nM |
| 50 to 500 nM | < 50 nM | > 1000 nM | < 100 nM | 50 to 500 nM | C[C@@H]1CC[C@@H](c2cccc(F)c2)N(C(=O)C(=O)Nc2cncc(C(N)=O)c2)C1 (racemic) [Compound 247, rac-5-{2-[(2R,5S)-2-(3-Fluorophenyl)-5-methylpiperidin-1-yl]-2-oxoacetamido}pyridine-3-carboxamide] | A (an IC50 ratio greater than or equal to 10 fold) | 1000 to 10000 nM |
| 50 to 500 nM | < 50 nM | > 1000 nM | < 100 nM | 50 to 500 nM | C[C@@H]1CC[C@@H](c2ccc(OC(F)(F)F)cc2)N(C(=O)C(=O)Nc2cncc(C(N)=O)c2)C1 (racemic) [Compound 250, rac-5-{2-[(2R,5S)-5-Methyl-2-[4-(trifluoromethoxy)phenyl]piperidin-1-yl]-2-oxoacetamido}pyridine-3-carboxamide] | A (an IC50 ratio greater than or equal to 10 fold) | 1000 to 10000 nM |
| 50 to 500 nM | < 50 nM | > 1000 nM | < 100 nM | 50 to 500 nM | C[C@@H]1CC[C@@H](c2ccc(C(F)(F)F)cc2)N(C(=O)C(=O)Nc2cncc(C(N)=O)c2)C1 (racemic) [Compound 251, rac-5-{2-[(2R,5S)-5-Methyl-2-[4-(trifluoromethyl)phenyl]piperidin-1-yl]-2-oxoacetamido}pyridine-3-carboxamide] | A (an IC50 ratio greater than or equal to 10 fold) | 1000 to 10000 nM |
| 50 to 500 nM | < 50 nM | > 1000 nM | 100 to 1000 nM | 50 to 500 nM | C[C@@H]1CC[C@@H](c2ccc(Cn3cncn3)cc2)N(C(=O)C(=O)Nc2cncc(C(N)=O)c2)C1 (racemic) [Compound 252, rac-5-{2-[(2R,5S)-5-Methyl-2-{4-[(1H-1,2,4-triazol-1-yl)methyl]phenyl}piperidin-1-yl]-2-oxoacetamido}pyridine-3-carboxamide] | A (an IC50 ratio greater than or equal to 10 fold) | > 10000 nM |
